# Source: patent publication US12653911B2, “Stimuli-responsive nanoparticles for biomedical applications” (The Brigham and Women's Hospital, Inc., priority 2016, dated 2026)
# Assay: Acid-base titration of the polymers (pKa)
# Format: physicochemical
# Description: (§1) Meo-PEG-b-P(DPA-co-GMA-TEPA-C14) was dispersed in deionized water, and a concentrated HCl aqueous solution was added until complete dissolution of the copolymer (1 mg/mL). Subsequently, 1 M NaOH aqueous solution was added in 1-5 μL increments. After each addition, the solution was constantly stirred for 3 min, and the solution pH was measured using a pH meter.
# as §1, with “Meo-PEG-b-P(DPA-co-GMA-Rn)” for “Meo-PEG-b-P(DPA-co-GMA-TEPA-C14)”, “until” for “until complete dissolution of”, “copolymer was completely dissolved” for “copolymer”
# Subsequently, 1 M NaOH aqueous solution was added in 1-5 μL increments. After each addition, the solution was constantly stirred for 3 min, and the solution pH was measured using a pH meter.
Substance,pKa,pKa of polymer
Meo-PEG113-b-P(DPA80-co-GMA5) [PDPA80-GMA5],6.24,
Meo-PEG-b-P(DPA-co-GMA) [PDPA40-GMA5],6.34,
Meo-PEG-b-P(DPA-co-GMA) [PDPA50-GMA5],6.31,
Meo-PEG-b-P(DPA-co-GMA) [PDPA60-GMA5],6.29,
Meo-PEG-b-P(DPA-co-GMA) [PDPA70-GMA5],6.26,
Meo-PEG-b-P(DPA-co-GMA) [PDPA100-GMA5],6.21,
Meo-PEG-b-P(DPA-co-GMA-R10),6.31,

# The remaining lines, values ahead:
pKa,pKa of polymer,Substance
,6.34,Meo-PEG-b-P(DPA-co-GMA-TEPA-C14) [PDPA40]
,6.31,Meo-PEG-b-P(DPA-co-GMA-TEPA-C14) [PDPA50]
,6.29,Meo-PEG-b-P(DPA-co-GMA-TEPA-C14) [PDPA60]
,6.26,Meo-PEG-b-P(DPA-co-GMA-TEPA-C14) [PDPA70]
